Test in all cases: growth of human tumour cells (NCI), 48 h
The test system of assay [1] is A549 NSCLC.
Assay [2] has as its system SN12C renal.
Assay [3] concerns UACC-257 melanoma.
Assay [4] has as its system SW-620 colon.
The subject of assay [5] is OVCAR-4 ovarian.
The test system of assay [6] is COLO 205 colon.
For assay [7], the system named is M14 melanoma.
For assay [8], the system named is HOP-92 NSCLC.
For assay [9], the system named is NCI-H226 lung.

Our source for the TGI values is PubChem BioAssay (NCI).

SMILES strings stand for the structures.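 These data come from cells grown in 96-well plates and exposed to compound for 48 hours at five concentrations. TGI: total growth inhibition.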

Regarding `O=c1c(Sc2c(O)c3ccccc3c3ccccc3c2=O)c(O)c2ccccc2c2ccccc12`, the TGI in assay [1], in assay [2], in assay [3], in [4], in [5] and in assay [6] was above 100 µM throughout. Moreover, the TGI in [7] and in [8] was above 100 µM in each case.
For the molecule `CC(=O)Nc1ccc(/C=N\N2C(=O)c3ccccc3C2=O)cc1`, the TGI in assay [1], in assay [2], in assay [3], in assay [4], in assay [5] and in [9] was above 100 µM in each case. Besides, the TGI in [7] and in assay [8] was above 100 µM throughout.
Regarding `Nc1c(Br)c(=O)[nH]c(=O)n1COCCO`, the TGI in [1], in [2], in assay [3], in assay [4], in [5] and in [6] was above 100 µM in each case. Also, the TGI in [7] and in assay [8] was above 100 µM in each case.
With `CC(/C(=N/NC(=O)C(N)=O)c1c(Cl)ccc(Cl)c1O)C1(O)C(=O)Nc2ccccc21` (stereo not drawn), the TGI in [1] is above 100 µM; in assay [2], above 100 µM; in [3], above 100 µM; in assay [4], above 100 µM; in [5] it was 92.3 µM; in [9], above 100 µM. In addition, the TGI is 49.1 µM in assay [6], above 100 µM in assay [7] and 75.2 µM in assay [8].
Regarding `COCC1N=C(c2cc(OC)c(OC)c(OC)c2-c2cc3c(cc2C2OCCCO2)OCO3)O[C@H]1c1ccccc1` (stereo partly drawn), the TGI in assay [1], in [2], in assay [3], in [4], in assay [5] and in [9] was above 100 µM in each case. Also, the TGI in [7] and in assay [8] was above 100 µM in each case.
Turning to `O=C(/C=C/c1ccc(Cl)c(Cl)c1)c1ccc(F)cc1`, the TGI in assay [1] was above 100 µM; in assay [2] it was 52.2 µM; in assay [3], 58 µM; in [4] it was 4.08 µM; in assay [5], 51.1 µM; in [9], 92.6 µM. Also, the TGI in assay [6] is 52 µM; in assay [7], 30.5 µM; in [8] it was 72.1 µM.
As for `CS(=O)(=O)OCCn1cnc2nc(NC(=O)c3ccccc3)[nH]c(=O)c21`, the TGI in assay [1], in assay [2], in [3], in assay [4], in assay [5] and in assay [9] was above 100 µM each time. Further, the TGI in assay [6], in assay [7] and in assay [8] was above 100 µM throughout.
As for `Fc1cccc2cc3ccc4cccc5ccc(c12)c3c45`, the TGI in assay [1], in assay [2], in [3], in assay [4], in assay [5] and in [9] was above 100 µM throughout. Further, the TGI in assay [6] and in assay [7] was above 100 µM each time.
Consider `C=C1C(=O)OC2C1CC[C@H](C)C13OC(=O)CC1[C@@]23C` (stereo partly drawn), for which the TGI in assay [1], in assay [2], in assay [3], in assay [4], in assay [9] and in [6] was above 100 µM in each case. This molecule also returned a TGI in assay [8] above 100 µM.
`CCC(CC)n1cc(C(=O)NC(=O)NCCCCCOC(=O)CCCCCCCCCCC(=O)OCCCCCNC(=O)NC(=O)c2cn(C(CC)CC)c(=O)[nH]c2=O)c(=O)[nH]c1=O`: the TGI in [1], in [2], in [3], in assay [4], in [5] and in assay [9] was above 100 µM each time. Besides, the TGI in assay [6], in assay [7] and in assay [8] was above 100 µM each time.
Regarding `O=C1OC(CC(=O)c2ccc(Cl)cc2Cl)C(Cl)=C1Cl` (stereo not drawn), the TGI in assay [1] was above 100 µM; in assay [2] it was above 31.6 µM; in assay [3], above 100 µM; in assay [4], 38.1 µM; in assay [5] it was above 58.4 µM; in [9], above 89.5 µM. Further, the results for the TGI in [6], in [7] and in assay [8] were 52.6 µM, above 91.9 µM and 39.7 µM, respectively.
As for `CC1=C(C(=O)Nc2cccc(Cl)c2)C(c2ccc([N+](=O)[O-])cc2)C(C(=O)Nc2cccc(Cl)c2)=C(C)N1`, the TGI is above 100 µM in assay [1]; 75.8 µM in [2]; 38.2 µM in assay [3]; above 100 µM in [5]; 84.5 µM in assay [9]; above 100 µM in assay [6]. For the same molecule, the TGI is 42.1 µM in assay [7] and 31.1 µM in assay [8].
Consider `CN(C)CCNC(=O)c1ccc(C(=O)NCCN(C)C)c2nc3ccccc3cc12`, for which the TGI in assay [1] was 13 µM; in [2] it was 8.96 µM; in assay [3] it was 4.47 µM; in [4] it was 9.56 µM; in [5], 3.52 µM; in assay [9], 3.6 µM. The TGI in assay [6] was 2.39 µM; in assay [7], 3.44 µM; in assay [8], 7.99 µM.
On to `C=CCN(N=O)C(=O)N(CCCC(NC(C)=O)C(=O)NCc1ccccc1)Cc1ccccc1` (stereo not drawn), for which the TGI in assay [1], in assay [2], in [3], in assay [4], in assay [5] and in assay [6] was above 100 µM throughout. For the same molecule, the TGI in [7] is above 100 µM.
`Cc1cccc(NC(=O)c2cc3cc(N=Nc4ccccc4Cl)ccc3oc2=O)c1`: the TGI is above 100 µM in [1]; above 100 µM in assay [2]; above 100 µM in assay [3]; above 100 µM in assay [4]; above 100 µM in assay [5]; 56.2 µM in assay [9]. In addition, the TGI in [6] is above 100 µM; in assay [7], 85.9 µM; in assay [8] it was 76.1 µM.
Regarding `COc1ccc(C(Cc2cc(OC)c(OC)c(OC)c2)C(=O)O)cc1` (stereo not drawn), the TGI in assay [1], in assay [2], in assay [3], in assay [4], in [5] and in assay [9] was above 100 µM throughout. The TGI in assay [6] and in assay [7] was above 100 µM throughout.
